Data published in DBAASP.
Values after ≈ are worked out from the molar mass of the structure shown.

What was measured:
Assay in all cases: ≥ marks a high value that may be exact or a test limit, other limits are often not marked, values filed in µg/mL are converted to µM
[1] = system: Candida albicans ATCC 18804
[2] = system: Staphylococcus epidermidis KCTC 1917
[3] = system: Staphylococcus aureus ATCC 6538
[4] = system: Proteus mirabilis
[5] = system: Candida tropicalis IOC 4560
[6] = system: Micrococcus luteus A270
[7] = system: Escherichia coli CCT 1371
[8] = system: Klebsiella aerogenes ATCC 13048
[9] = system: Klebsiella pneumoniae ATCC 13883
[10] = system: Escherichia coli KCTC 1682
[11] = system: Pseudomonas aeruginosa PAO1
[12] = system: Escherichia coli BL21
[13] = system: Escherichia coli AIG 221
[14] = system: Staphylococcus epidermidis ATCC 12228
[15] = system: Pseudomonas aeruginosa ATCC 15442
[16] = system: Staphylococcus aureus CCARM 3001
[17] = system: Staphylococcus aureus ATCC 12600
[18] = system: Pseudomonas aeruginosa ATCC BAA-427
[19] = system: Candida albicans MDM8
[20] = system: Escherichia coli ATCC 10536
[21] = system: Staphylococcus aureus ATCC 25923
[22] = system: Pseudomonas aeruginosa ATCC 27853
[23] = system: Pseudomonas aeruginosa KCTC 1637
[24] = system: Bacillus thuringiensis
[25] = system: Escherichia coli AIG 222
[26] = system: Bacillus subtilis CCT 2471
[27] = system: Serratia marcescens ATCC 4112
[28] = system: Pseudomonas aeruginosa NCIB 10421
[29] = system: Salmonella enterica subsp. enterica serovar Typhimurium ATCC 14028
[30] = system: Staphylococcus aureus CCARM 3543
[31] = system: Salmonella typhimurium KCTC 1926
[32] = system: Escherichia coli SBS 363
[33] = system: Pseudomonas aeruginosa CCARM 2095
[34] = system: Staphylococcus aureus KCTC 1621
[35] = system: Bacillus megaterium ATCC 10778
[36] = system: Staphylococcus aureus ATCC 25293
[37] = system: Acinetobacter baumannii ATCC 19606
[38] = system: Bacillus cereus ATCC 11778
[39] = system: Klebsiella oxytoca CIP 79.32
[40] = system: Escherichia coli ATCC 11775
[41] = system: Staphylococcus saprophyticus
[42] = system: Mammaliicoccus lentus
[43] = system: Candida tropicalis
[44] = system: Escherichia coli D21
[45] = system: Pseudomonas syringae pv. tabaci
[46] = system: Phytophthora nicotianae PG344
[47] = system: Candida albicans ATCC 10231
[48] = system: Micrococcus luteus
[49] = system: Yersinia pseudotuberculosis YPIII
[50] = system: Bacillus megaterium Bm11

Work on `CC[C@H](C)[C@H](N)C(=O)N[C@@H](CC(C)C)C(=O)NCC(=O)N[C@@H](CCCCN)C(=O)N[C@H](C(=O)N[C@@H](Cc1c[nH]c2ccccc12)C(=O)N[C@@H](CCC(=O)O)C(=O)NCC(=O)N[C@H](C(=O)N[C@@H](CCCCN)C(=O)N[C@@H](CO)C(=O)N[C@@H](CC(C)C)C(=O)N[C@@H](Cc1ccccc1)C(N)=O)[C@@H](C)CC)[C@@H](C)CC` [ILGKIWEGIKSLF] yielded an MIC [1] of 12.5 µM (≈ 18.8 µg/mL), an MIC [2] of 2 µM (≈ 3.01 µg/mL) and an MIC [3] of 3.32 µM (≈ 5 µg/mL). It also gave an MIC [4] of at least 133 µM, an MIC [5] of 1.56 µM (≈ 2.34 µg/mL) and an MIC [6] of 0.78 µM (≈ 1.17 µg/mL). For the same molecule, the MIC [7] was 3.32 µM (≈ 5 µg/mL), the MIC [8] was at least 66.5 µM and the MIC [9] was at least 64 µM. It also gave an MIC [10] of 4 µM (≈ 6.01 µg/mL), an MIC [11] of over 128 µM and an MIC [12] of 4 µM (≈ 6.01 µg/mL). The MIC [13] was at least 32 µM, the MIC [14] was 8 µM (≈ 12 µg/mL) and the MIC [15] was at least 133 µM. For the same molecule, the MIC [16] was 1 µM (≈ 1.5 µg/mL), the MIC [17] was 8 µM (≈ 12 µg/mL) and the MIC [18] was 4 µM (≈ 6.01 µg/mL). The MIC [19] was 3.13 µM (≈ 4.7 µg/mL), the MIC [20] was 3 µM (≈ 4.51 µg/mL) and the MIC [21] was 2 µM (≈ 3.01 µg/mL). The MIC [22] was 66.5 µM (≈ 99.9 µg/mL), the MIC [23] was 2 µM (≈ 3.01 µg/mL) and the MIC [24] was 16.6 µM (≈ 25 µg/mL). For the same molecule, the MIC [25] was 16 µM (≈ 24 µg/mL), the MIC [26] was 6.65 µM (≈ 9.99 µg/mL) and the MIC [27] was 0.36 µM (≈ 0.541 µg/mL). The MIC [28] was at least 50 µM, the MIC [29] was 66.5 µM (≈ 99.9 µg/mL) and the MIC [30] was 1 µM (≈ 1.5 µg/mL). The MIC [31] was 2 µM (≈ 3.01 µg/mL), the MIC [32] was 1.56 µM (≈ 2.34 µg/mL) and the MIC [33] was 1 µM (≈ 1.5 µg/mL). For the same molecule, the MIC [34] was 2 µM (≈ 3.01 µg/mL), the MIC [35] was 0.78 µM (≈ 1.17 µg/mL) and the MIC [36] was 0.665 µM (≈ 0.999 µg/mL). For the same molecule, the MIC [37] was 8 µM (≈ 12 µg/mL), the MIC [38] was at least 66.5 µM and the MIC [39] was 16 µM (≈ 24 µg/mL). For the same molecule, the MIC [40] was at least 32 µM and the MIC [41] was 0.665 µM (≈ 0.999 µg/mL).

In the case of `CC(C)C[C@H](NC(=O)[C@H](C)NC(=O)CN)C(=O)N[C@@H](CCCN=C(N)N)C(=O)NCC(=O)N[C@H]1CSSC[C@@H](C(=O)N[C@@H](CCCCN)C(N)=O)NC(=O)[C@@H]2CCCN2C(=O)[C@H](CCCCN)NC(=O)[C@@H]2CCCN2C(=O)[C@@H]2CCCN2C(=O)[C@H](Cc2ccc(O)cc2)NC(=O)[C@H](CO)NC(=O)[C@H](CCCCN)NC(=O)[C@H]([C@@H](C)O)NC(=O)[C@H](Cc2c[nH]c3ccccc23)NC1=O` [GALRGCWTKSYPPKPCK], the MIC [42] is reported as 10 µM (≈ 18.9 µg/mL), the MIC [43] is reported as 14 µM (≈ 26.5 µg/mL) and the MIC [44] is reported as 30 µM (≈ 56.7 µg/mL). It also gave an MIC [45] of 16 µM (≈ 30.2 µg/mL), an MIC [46] of 16 µM (≈ 30.2 µg/mL) and an MIC [47] of 22 µM (≈ 41.6 µg/mL). For the same molecule, the MIC [48] was 8 µM (≈ 15.1 µg/mL), the MIC [49] was 5 µM (≈ 9.45 µg/mL) and the MIC [50] was 3 µM (≈ 5.67 µg/mL).
